Laboratory results reported in ChEMBL document CHEMBL1201862, “PubChem BioAssay data set” (2004).
Active and inactive are the calls of the source.

What was measured:
Nonstructural protein 1 = Nonstructural protein 1 (Influenza A virus, UniProt Q194T2); assay type: functional, Influenza A virus (A/California/07/2009(H1N1))
[1] = molecular target: T1, RNA-binding protein pos-1 (Caenorhabditis elegans, UniProt G5EF15); experiment: inhibitors of POS-1/mex-3 RNA binding, dose response, biochemical, fluorescence polarization (AID 1964);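 further: purified POS-1 fused to maltose binding protein made in E. coli; potency of compounds blocking POS-1 binding to fluorescent RNA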
T1 sequence (G5EF15 whole entry): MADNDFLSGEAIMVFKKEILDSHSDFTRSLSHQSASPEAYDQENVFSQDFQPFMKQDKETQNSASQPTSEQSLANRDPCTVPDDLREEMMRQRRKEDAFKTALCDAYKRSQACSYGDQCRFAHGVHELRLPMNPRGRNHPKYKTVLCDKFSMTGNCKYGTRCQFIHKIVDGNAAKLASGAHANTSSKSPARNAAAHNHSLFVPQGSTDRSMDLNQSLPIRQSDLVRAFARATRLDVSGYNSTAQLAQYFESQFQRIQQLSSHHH

[2] = molecular target: T2, 1-phosphatidylinositol 4,5-bisphosphate phosphodiesterase beta-3 (Homo sapiens, UniProt Q01970); experiment: Fluorescence-based biochemical high throughput dose response assay to identify inhibitors of phospholipase C isozymes (PLC-B3).
T2 sequence (Q01970 whole entry): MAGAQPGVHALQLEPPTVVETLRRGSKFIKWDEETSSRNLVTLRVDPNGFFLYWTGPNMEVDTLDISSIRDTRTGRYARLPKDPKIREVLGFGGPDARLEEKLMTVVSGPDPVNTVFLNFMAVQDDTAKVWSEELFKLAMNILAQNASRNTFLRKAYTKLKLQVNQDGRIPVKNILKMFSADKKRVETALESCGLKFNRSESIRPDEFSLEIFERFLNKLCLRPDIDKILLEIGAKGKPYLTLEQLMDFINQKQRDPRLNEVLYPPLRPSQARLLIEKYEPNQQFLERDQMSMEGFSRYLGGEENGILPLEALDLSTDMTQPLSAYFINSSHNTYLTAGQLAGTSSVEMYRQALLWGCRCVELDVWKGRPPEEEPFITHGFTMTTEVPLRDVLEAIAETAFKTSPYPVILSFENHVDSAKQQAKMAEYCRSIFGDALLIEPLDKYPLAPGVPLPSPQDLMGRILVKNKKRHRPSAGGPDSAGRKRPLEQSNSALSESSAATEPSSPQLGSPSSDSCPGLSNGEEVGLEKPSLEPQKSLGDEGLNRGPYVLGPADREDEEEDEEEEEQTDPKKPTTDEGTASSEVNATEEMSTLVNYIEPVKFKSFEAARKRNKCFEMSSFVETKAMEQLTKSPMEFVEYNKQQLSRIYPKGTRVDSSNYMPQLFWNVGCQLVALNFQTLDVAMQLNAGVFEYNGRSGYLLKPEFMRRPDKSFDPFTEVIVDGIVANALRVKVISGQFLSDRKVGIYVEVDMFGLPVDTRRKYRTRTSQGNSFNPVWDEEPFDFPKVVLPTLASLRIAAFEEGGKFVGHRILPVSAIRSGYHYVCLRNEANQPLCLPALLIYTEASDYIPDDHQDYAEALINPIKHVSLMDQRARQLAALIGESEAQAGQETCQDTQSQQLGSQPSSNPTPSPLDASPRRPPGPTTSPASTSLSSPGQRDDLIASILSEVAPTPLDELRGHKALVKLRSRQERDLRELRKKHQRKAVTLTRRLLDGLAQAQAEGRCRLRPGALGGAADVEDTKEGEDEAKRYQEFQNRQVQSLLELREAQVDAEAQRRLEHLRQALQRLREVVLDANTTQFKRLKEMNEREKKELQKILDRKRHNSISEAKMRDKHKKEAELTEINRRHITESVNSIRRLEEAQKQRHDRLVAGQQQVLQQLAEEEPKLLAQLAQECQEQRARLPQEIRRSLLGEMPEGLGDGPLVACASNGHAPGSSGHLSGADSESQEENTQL

[3] = molecular target: T3, Endoribonuclease toxin MazF (Escherichia coli K-12, UniProt P0AE70); experiment: MazF toxin RNase activators, dose response, biochemical, fluorescence, single-stranded RNA substrate, uHTS hits (AID 588481); assay type: functional
T3 sequence (P0AE70 whole entry): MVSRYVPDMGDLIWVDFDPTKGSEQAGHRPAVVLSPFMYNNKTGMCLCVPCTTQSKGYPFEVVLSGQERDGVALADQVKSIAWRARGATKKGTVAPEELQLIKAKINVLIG

[4] = enhancers of respiration in Yfh1-depleted yeast, dose response, Friedreich's ataxia, plus single-dose screen (AID 1465); assay type: functional;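 further: yeast depleted of Yfh1p frataxin homolog grown on glycerol needing respiration; WST-1 tetrazolium dye reduction as measure of cellular dehydrogenase metabolic activity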

Nonstructural protein 1, sequence (Q194T2 whole entry, the tested form may be a part): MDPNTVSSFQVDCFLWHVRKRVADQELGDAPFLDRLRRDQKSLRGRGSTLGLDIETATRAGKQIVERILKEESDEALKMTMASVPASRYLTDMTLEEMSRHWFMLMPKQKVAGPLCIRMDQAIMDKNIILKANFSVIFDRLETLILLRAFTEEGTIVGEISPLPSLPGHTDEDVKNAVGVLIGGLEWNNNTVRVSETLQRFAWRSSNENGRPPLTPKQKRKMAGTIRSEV

With `Oc1ccc(/C=N/NC(=S)Nc2cccnc2)c(O)c1O` the IC50 (Nonstructural protein 1) was 3.58 µM (active), the EC50 [1] was 71.4 µM (active) and the IC50 [2] was > 122 µM (inactive). For the same molecule, the EC50 [3] was > 99 µM (inactive) and the EC50 [4] was > 100 µM (active).
